Measured values taken from patent publication US10030016B2 (Sunesis Pharmaceuticals, Inc., priority 2009, dated 2018).
Where a name gives a salt, the structure may show the parent alone. Read-outs that look alike come from different tables or passages of the source.

Legend:
PDK1 = PDK1 (Homo sapiens (Human), UniProt O15530); assay: PDK1 kinase assay (coupled PDK1/AKT/FAM-crosstide assay, IMAP fluorescence polarization); type: biochemical
In short: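 GST-tagged human PDK1 (aa 51-359, 0.75 nM) from insect cells activated unphosphorylated GST-AKT2 (aa 140-467–PIFtide fusion, 10 nM), which phosphorylated 100 nM FAM-crosstide; 40 μM ATP, pH 7.2 Tris/MgCl2, 30 min at 25° C. IMAP fluorescence polarization read-out; ΔmP versus compound concentration fitted with a 4-parameter curve.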

[1] = tested on: phospho-akt (Thr308) in PC-3 cells; assay: Inhibition of phospho-akt (Thr308) in PC-3 cells, MSD phospho-akt 308 ELISA kit; type: cell-based; details: 2 hours, no serum, read-out: EC50
In short: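 PC-3 cells (15,000/well, overnight in 10% FBS medium) treated 2 h with three-fold diluted compounds in serum-free medium; DMSO high and 5 μM wortmannin low controls. Lysates captured on BSA-blocked MSD plates overnight at 4 °C, then 1 h antibody detection at RT; phospho-Akt Thr308 read by MSD electrochemiluminescence.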

[2] = Homo sapiens, inhibition of P308 Akt in PC-3 cells using MSD
[3] = inhibition of phospo-PDK1 in vitro
[4] = Homo sapiens, inhibition of P308 Akt in PC-3 cells, MSD

Chain of PDK1 (O15530 51-359): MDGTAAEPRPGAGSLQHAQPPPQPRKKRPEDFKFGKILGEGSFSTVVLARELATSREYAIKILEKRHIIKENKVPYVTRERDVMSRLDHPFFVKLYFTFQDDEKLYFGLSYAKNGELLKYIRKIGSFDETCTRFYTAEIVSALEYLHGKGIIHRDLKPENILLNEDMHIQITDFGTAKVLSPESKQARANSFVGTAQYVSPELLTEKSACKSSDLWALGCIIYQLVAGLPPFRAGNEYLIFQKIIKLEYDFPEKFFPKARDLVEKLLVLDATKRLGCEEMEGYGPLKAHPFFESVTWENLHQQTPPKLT

| Structure (SMILES) | IC50 (PDK1; inhibition of PDK1 in vitro) | EC50 [1, 2] | IC50 (PDK1; [3]) | EC50 [1, 4] | also measured |
| --- | --- | --- | --- | --- | --- |
| C[C@H](NC(=O)c1nc(C#N)cnc1NCc1ccc(-c2cnc(N)c(O[C@H]3CCC[C@@H]3N)n2)cc1)c1ccc(F)c(F)c1 [Example 169, 3-{4-[5-Amino-6-((1S,2S)-2-amino-cyclopentyloxy)-pyrazin-2-yl]-benzylamino}-6-cyano-pyrazine-2-carboxylic acid [(S)-1-(3,4-difluoro-phenyl)-ethyl]-amide] | < 0.1 µM | < 1 µM |  |  |  |
| C[C@H](NC(=O)c1cc(C#N)cnc1NCC#Cc1cnc2[nH]ncc2c1)c1ccc(F)cc1 [Example 249, (S)-2-(3-(1H-pyrazolo[3,4-b]pyridin-5-yl)prop-2-ynylamino)-5-cyano-N-(1-(4-fluorophenyl)ethyl)nicotinamide] | > 5 µM | > 10 µM |  |  |  |
| C[C@H](NC(=O)c1nc(C#N)cnc1NCc1ccc(-c2cnc(N)c(-c3cccc(O)c3)n2)cc1)c1ccc(F)c(F)c1 [Example 235, 3-{4-[5-Amino-6-(3-hydroxy-phenyl)-pyrazin-2-yl]-benzylamino}-6-cyano-pyrazine-2-carboxylic acid [(S)-1-(3,4-difluoro-phenyl)-ethyl]-amide] | < 0.1 µM | 1 to 10 µM |  |  |  |
| C[C@H](NC(=O)c1cc(C#N)cnc1Nc1ccc(-c2c[nH]c3ncnc(N)c23)cc1)c1ccc(F)cc1 [Example 436, (S)-2-(4-(4-amino-7H-pyrrolo[2,3-d]pyrimidin-5-yl)phenylamino)-5-cyano-N-(1-(4-fluorophenyl)ethyl)nicotinamide] | 0.1 to 1 µM | 1 to 10 µM |  |  |  |
| C[C@H](NC(=O)c1cc(C#N)cnc1NCc1ccc(-c2ccc3ncnc(N)c3c2)s1)c1ccc(F)c(F)c1 [Example 8.8.2] |  |  | < 0.1 µM | < 1 µM |  |
| N#Cc1cnc(NCc2ccc(-c3cnc4[nH]nc(N)c4c3)cc2)c(C(=O)Nc2ccc(Cl)cc2)n1 [Example 426, 3-(4-(3-amino-1H-pyrazolo[3,4-b]pyridin-5-yl)benzylamino)-N-(4-chlorophenyl)-6-cyanopyrazine-2-carboxamide] | < 0.1 µM | < 1 µM |  |  |  |
| Nc1n[nH]c2ncc(-c3ccc(CNc4ncc(C(F)(F)F)cc4C(=O)N[C@H](CO)c4ccc(Br)cc4)cc3)cc12 [Example 437, (S)-2-(4-(3-amino-1H-pyrazolo[3,4-b]pyridin-5-yl)benzylamino)-N-(1-(4-bromophenyl) 2-hydroxyethyl)-5-(trifluoromethyl)nicotinamide] | 1 to 5 µM | > 10 µM |  |  |  |
| Nc1n[nH]c2ncc(-c3ccc(CNc4ncc(C(F)(F)F)cc4C(=O)NC4CCC4)cc3)cc12 [Example 299, 2-(4-(3-amino-1H-pyrazolo [3,4-b]pyridin-5-yl)benzylamino)-N-cyclobutyl-5-(trifluoromethyl)nicotinamide] | < 0.1 µM | 1 to 10 µM |  |  |  |
| C[C@H](NC(=O)c1cc(S(=O)(=O)N(C)C)cnc1NCc1ccc(-c2ccc3ncnc(N)c3c2)s1)c1ccc(F)c(F)c1 [Example 8.7.6, 2-({[5-(4-aminoquinazolin-6-yl)thiophen-2-yl]methyl}amino)-N-[(1S)-1-(3,4-difluorophenyl)ethyl]-5-(dimethylsulfamoyl) pyridine-3-carboxamide] |  |  | < 0.1 µM |  | EC50 ([1]; inhibition of P308 Akt in PC-3 cells, MSD): < 1 µM |
| C[C@H](NC(=O)c1c(NCc2ccc(-c3ccc4ncnc(N)c4c3)s2)ncc(Br)c1N)c1ccc(F)c(F)c1 [Example 3.87] |  |  | 1 to 5 µM | > 10 µM |  |
| CCOC(=O)Nc1n[nH]c2ncc(-c3ccc(CNc4ncc(C#N)nc4C(=O)N[C@@H](C)c4ccc(F)c(F)c4)cc3)cc12 [Example 36, (S)-ethyl 5-(4-((5-cyano-3-(1-(3,4-difluorophenyl)ethylcarbamoyl)pyrazin-2-ylamino)methyl)phenyl)-1H-pyrazolo[3,4-b]pyridin-3-ylcarbamate] |  |  | < 0.1 µM | < 1 µM |  |
| Cn1cnc(CNC(=O)c2cc(C(F)(F)F)cnc2NCc2ccc(-c3cnc4[nH]nc(N)c4c3)cc2)c1 [Example 270, 2-(4-(3-amino-1H-pyrazolo [3,4-b]pyridin-5-yl)benzylamino)-N-((1-methyl-1H-imidazol-4-yl)methyl)-5-(trifluoromethyl) nicotinamide] | 1 to 5 µM | 1 to 10 µM |  |  |  |
| Nc1ncnc2c1c(-c1ccc(CNc3ncc(C(F)(F)F)cc3C(=O)NCc3ccc(F)c(F)c3)cc1)cn2CCCO [Example 334, 2-(4-(4-amino-7-(3-hydroxypropyl)-7H-pyrrolo[2,3-d]pyrimidin-5-yl)-benzylamino)-N-(3,4-difluorobenzyl)-5-(trifluoromethyl)nicotinamide] | < 0.1 µM | < 1 µM |  |  |  |
| CC(C)c1cnc(NCc2ccc(-c3ccc4ncnc(N)c4c3)s2)c(C(=O)NCc2ccc(F)c(F)c2)n1 [Ex. 10.4, 3-({[5-(4-aminoquinazolin-6-yl)thiophen-2-yl]methyl}amino)-N-(3,4-difluorobenzyl)-6-(propan-2-yl)pyrazine-2-carboxamide] |  |  | 0.1 to 1 µM | > 10 µM |  |
| C[C@H](NC(=O)c1cc(C#N)cnc1NCc1ccc(-c2cnc(N)c(C(=O)N3CCNCC3)n2)cc1)c1ccc(F)cc1 [Example 221, 2-{4-[5-Amino-6-(piperazine-1-carbonyl)-pyrazin-2-yl]-benzylamino}-5-cyano-N-[(S)-1-(4-fluoro-phenyl)-ethyl]-nicotinamide] | < 0.1 µM | 1 to 10 µM |  |  |  |
| C[C@H](NC(=O)c1cc(C#N)cnc1NCc1ccc(-c2cnc3[nH]nc(C#CCN(C)C)c3c2)cc1)c1ccc(F)cc1 [Example 146, (S)-5-cyano-2-(4-(3-(3-(dimethylamino)prop-1-ynyl)-1H-pyrazolo[3,4-b]pyridin-5-yl)benzyl-amino)-N-(1-(4-fluorophenyl)ethyl) nicotinamide] | < 0.1 µM | < 1 µM |  |  |  |
| Nc1ncc(-c2ccc(CNc3ncc(C(F)(F)F)cc3C(=O)Nc3ccc(F)cc3)cc2)nc1O[C@@H]1CCNC1 [Example 159, 2-{4-[5-Amino-6-((R)-pyrrolidin-3-yloxy)-pyrazin-2-yl]-benzylamino}-N-(4-fluoro-phenyl)-5-trifluoromethyl-nicotinamide] | < 0.1 µM | < 1 µM |  |  |  |
| Nc1ncnc2ccc(-c3ccc(CNc4ncccc4C(=O)NCc4ccc(Cl)c(Cl)c4)s3)cc12 [Example 3.29, 2-({[5-(4-aminoquinazolin-6-yl)thiophen-2-yl]methyl}amino)-N-(3,4-dichlorobenzyl) pyridine-3-carboxamide (TFA salt)] |  |  | 0.1 to 1 µM | 1 to 10 µM |  |
| C[C@H](NC(=O)c1nc(C#N)cnc1NCc1ccc(-c2cnc3[nH]ncc3c2)cc1)c1ccc(F)cc1 [Example 389, 6-Cyano-3-[4-(1H-pyrazolo [3,4-b]pyridin-5-yl)-benzylamino]-pyrazine-2-carboxylic acid [(S)-1-(4-fluoro-phenyl)-ethyl]-amide] | < 0.1 µM | < 1 µM |  |  |  |
| O=C(NCc1ccc(F)c(F)c1)c1cccnc1NCc1nc(-c2c[nH]c3ncccc23)cs1 [Ex. 6.11, N-(3,4-difluorobenzyl)-2-({[4-(1H-pyrrolo[2,3-b]pyridin-3-yl)-1,3-thiazol-2-yl]methyl}amino) pyridine-3-carboxamide] |  |  | 0.1 to 1 µM | 1 to 10 µM |  |
| C[C@H](NC(=O)c1cc(C#N)cnc1NCc1ccc(-c2cnc(N)c(CO)n2)cc1)c1ccc(F)cc1 [Example 240, (S)-2-(4-(5-amino-6-(hydroxymethyl)pyrazin-2-yl)benzylamino)-5-cyano-N-(1-(4-fluorophenyl)ethyl)nicotinamide] | < 0.1 µM | < 1 µM |  |  |  |
| N#Cc1cnc(NCc2ccc(-c3cnc4[nH]nc(N)c4c3)cc2)c(C(=O)NCc2ccc(F)c(F)c2)n1 [Example 31, 3-(4-(3-amino-1H-pyrazolo[3,4-b]pyridin-5-yl)benzylamino)-6-cyano-N-(3,4-difluorobenzyl) pyrazine-2-carboxamide] |  |  | < 0.1 µM | < 1 µM |  |
| C[C@H](NC(=O)c1cccnc1NCc1ccc(-c2ccc3ncnc(N)c3c2)s1)c1cccc(F)c1 [Example 3.21, 2-({[5-(4-aminoquinazolin-6-yl)thiophen-2-yl]methyl}amino)-N-[(1S)-1-(3-fluorophenyl)ethyl]pyridine-3-carboxamide (TFA salt)] |  |  | < 0.1 µM | 1 to 10 µM |  |
| Nc1ncnc2ccc(-c3ccc(CNc4ncc(S(=O)(=O)N5CCCCC5)cc4C(=O)NCc4ccc(F)c(F)c4)s3)cc12 [Example 8.6.8, 2-(((5-(4-aminoquinazolin-6-yl)thiophen-2-yl)methyl)amino)-N-(3,4-difluorobenzyl)-5-(piperidin-1-ylsulfonyl) nicotinamide] |  |  | 0.1 to 1 µM | > 10 µM |  |
| CNC(=O)c1cc(S(=O)(=O)NCCO)cnc1NCc1ccc(-c2ccc3ncnc(N)c3c2)s1 [Example 342] | > 5 µM | > 10 µM |  |  |  |
| C[C@H](NC(=O)c1cc(C#N)cnc1NCc1ccc(-c2cnc3[nH]ncc3c2)cc1)c1ccc(F)c(F)c1 [Example 395, 5-Cyano-N-[(S)-1-(3,4-difluoro-phenyl)-ethyl]-2-[4-(1H-pyrazolo[3,4-b]pyridin-5-yl)-benzylamino]-nicotinamide] | < 0.1 µM | < 1 µM |  |  |  |
| CC(NC(=O)c1cccnc1NCc1ccc(-c2ccc3ncnc(N)c3c2)s1)c1ccc(F)c(F)c1 (stereo not drawn) [Example 3.19, 2-({[5-(4-aminoquinazolin-6-yl)thiophen-2-yl]methyl}amino)-N-[1-(3,4-difluorophenyl)ethyl] pyridine-3-carboxamide (TFA salt)] |  |  | 0.1 to 1 µM |  | EC50 ([1]; Homo sapiens, PC-3, 2 h, inhibition of P308 Akt in PC-3 cells, MSD): > 10 µM |
